The first test relates to Nrf2 (Keap1-NRF2 nuclear translocation). Description: U2OS translocation assay (PathHunter U2OS Keap1-NRF2 Nuclear Translocation Cell Line). The class given is cell-based. The conditions noted are these: Homo sapiens, U2OS, 3 h, read-out: CELLULAR U2OS EC50 (nM), U2OS Keap1-NRF2 nuclear translocation cells, 3 h incubation, luminescence, normalized between 1% DMSO and 10 μM andrographolide. Here is the method:
EXAMPLE 84: U2OS—TRANSLOCATION ASSAY
U2OS cell have been stably transduced using MMLV-derived retroviral vector, to overexpress Nrf2-Enzyme Donor fusion protein, and Acceptor Enzyme in the nucleus (PathHunter® U2OS Keap1-NRF2 Nuclear Translocation Cell Line, Ref.93-0821C3, DiscoverX).
PathHunter U2OS cells were grown in Minimum Essential Medium (MEM) (Ref.30-2003, ATCC), 10% FBS (Ref.P30-193306, PanBiotech), 500 μg/ml Geneticine, 250 μg/ml hygromycine, 0.25 μg/ml puromycine (10131-027, 10687-010 and Ref.A1113802 respectively, Life Technologies).
The night before experiment, cells were harvested using Tryple Xpress (Ref.126905, Bibco) for 5 min at 37° C., resuspended in Opti-MEM™ (Ref.31985-047, Gibco), 1% FBS (Ref.P30-193306, PanBiotech) and then plated into 384 wells plates (Ref.6007680, Perkin Elmer) at the density of 7 500 cells/well in 20 μl. Cell are stored over night at 37° C., 5% CO2 until used. Compounds in 100% DMSO (0.315 μl/well) were resuspended in 20 μl MEM, 1% FBS, 3.4% DMSO. Compounds and andrographolide (10 μM final concentration; Ref.365645-500MG, Aldrich)) as positive control, were dispensed on cell, 5 μl /well, and then incubated for 3 h at 37° C. and 5% CO2. After incubation, Path hunter reagents were dispensed on cells (12 μl /well, Ref.93-0001, DiscoverX) and incubated for 60 min at room temperature in the dark.
Then, luminescence signal was measured using multimodal reader (Pherastar, BMG Labtech). Data were normalized between 1% DMSO (basal signal) and 10 μM andrographolide (positive signal) and analyzed using Activity Base software.
For the compound `Cc1ccc2cc1[C@@H](C)N1Cc3cc(ccc3OS1(=O)=O)OC[C@@H](O)CCn1nnc3c(C)c(ccc31)[C@H]2CC(=O)O` [Example 46a, [(2R,8RS,19S)-19-Hydroxy-2,4,31-trimethyl-27,27-dioxo-21,26-dioxa-27λ^6-thia-1,14,15,16-tetraazahexacyclo[20.5.3.1^3,70.1^9,130.0^12,160.0^25,29]dotriaconta-3(32),4,6,9(31),10,12,14,22,24,29-decaen-8-yl]acetic acid], the EC50 is 228 nM.

Turning to `Cc1ccc2cc1[C@@H](C)N1Cc3cc(ccc3OS1(=O)=O)OC[C@@H](O)CCn1nnc3c(C)c(ccc31)[C@@H]2CC(=O)O` [Example 46b, [(2R,8RS,19S)-19-hydroxy-2,4,31-trimethyl-27,27-dioxo-21,26-dioxa-27λ^6-thia-1,14,15,16-tetraazahexacyclo[20.5.3.1^3,70.1^9,130.0^12,160.0^25,29]dotriaconta-3(32),4,6,9(31),10,12,14,22,24,29-decaen-8-yl]acetic acid], the 50% effective concentration (EC50) came to 792 nM.

For the compound `COc1ccc2cc1CN1Cc3cc(ccc3OS1(=O)=O)OCCN(C)CCCCn1nnc3c(C)c(ccc31)C2CC(=O)O` (centres unmarked) [Example 47], the EC50 stood at 288 nM.

Take `Cc1ccc2cc1CN1Cc3cc(ccc3OS1(=O)=O)OCCCCn1nnc3c(C)c(cc(Br)c31)[C@@H]2CC(=O)O` [Example 48, [(8R)-11-Bromo-4,31-dimethyl-27,27-dioxo-21,26-dioxa-27λ^6-thia-1,14,15,16-tetraazahexacyclo[20.5.3.1^3,70.1^9,130.0^12,160.0^25,29]dotriaconta-3(32),4,6,9(31),10,12,14,22,24,29-decaen-8-yl]acetic acid]: the EC50 worked out at 198 nM.

As to `COc1ccc2cc1CN1Cc3cc(ccc3OS1(=O)=O)OCCOCCn1nnc3c(C)c(ccc31)C2CC(=O)O` (centres unmarked) [Example 59b, [4-Methoxy-32-methyl-28,28-dioxo-19,22,27-trioxa-28λ^6-thia-1,14,15,16-tetraazahexacyclo[21.5.3.1^3,70.1^9,130.0^12,160.0^26,30]tritriaconta-3(33),4,6,9(32),10,12,14,23,25,30-decaen-8-yl]acetic acid], the concentration giving a half-maximal response (EC50) came to 1760 nM.

As for `Cc1ccc2cc1CN1Cc3cc(ccc3OS1(=O)=O)OCc1ccccc1CCn1nnc3c(C)c(ccc31)C2CC(=O)O` (centres unmarked) [Example 62b, [4,36-Dimethyl-32,32-dioxo-26,31-dioxa-32λ^6-thia-1,14,15,16-tetraazaheptacyclo[25.5.3.1^3,70.1^9,130.0^12,160.0^19,240.0^30,34]heptatriaconta-3(37),4,6,9(36),10,12,14,19,21,23,27,29,34-tridecaen-8-yl]acetic acid], the 50% effective concentration (EC50) is more than 3160 nM.

In the case of `Cc1ccc2cc1CN1Cc3cc(ccc3OS1(=O)=O)OCCSCCn1nnc3c(C)c(ccc31)C2CC(=O)O` (centres unmarked) [Example 63b, [4,32-Dimethyl-28,28-dioxo-22,27-dioxa-19,28λ^6-dithia-1,14,15,16-tetraazahexacyclo[21.5.3.1^3,70.1^9,130.0^12,160.0^26,30]tritriaconta-3(33),4,6,9(32),10,12,14,23,25,30-decaen-8-yl]acetic acid], the 50% effective concentration (EC50) stood at 1220 nM.

Regarding `Cc1c2ccc3c1nnn3CCCCOc1ccc3c(c1)CN([C@H](C)c1cc(ccc1Cl)[C@H]2CC(=O)O)S(=O)(=O)O3` [Example 64b, [(2R,8R)-4-chloro-2,31-dimethyl-27,27-dioxo-21,26-dioxa-27λ^6-thia-1,14,15,16-tetraazahexacyclo[20.5.3.1^3,70.1^9,130.0^12,160.0^25,29]dotriaconta-3(32),4,6,9(31),10,12,14,22,24,29-decaen-8-yl]acetic acid], the 50% effective concentration (EC50) stood at 231 nM.

Take `Cc1ccc2cc1CN1Cc3cc(ccc3OS1(=O)=O)OCCC(c1ccc(C(F)(F)F)cc1)Cn1nnc3c(C)c(ccc31)C2CC(=O)O` (centres unmarked) [Example 65, {4,31-Dimethyl-27,27-dioxo-18-[4-(trifluoromethyl)phenyl]-21,26-dioxa-27λ^6-thia-1,14,15,16-tetraazahexacyclo[20.5.3.1^3,70.1^9,130.0^12,160.0^25,29]dotriaconta-3(32),4,6,9(31),10,12,14,22,24,29-decaen-8-yl}acetic acid]: the EC50 was 699 nM.

Regarding `Cc1ccc2cc1CN1Cc3cc(ccc3OS1(=O)=O)Oc1ccccc1NCCCn1nnc3c(C)c(ccc31)C2CC(=O)O` (centres unmarked) [Example 71b, [4,37-Dimethyl-33,33-dioxo-27,32-dioxa-33λ^6-thia-1,14,15,16,20-pentaazaheptacyclo[26.5.3.1^3,70.1^9,130.0^12,160.0^21,260.0^31,35]octatriaconta-3(38),4,6,9(37),10,12,14,21,23,25,28,30,35-tridecaen-8-yl]acetic acid], the EC50 stood at 570 nM.

`Cc1ccc2cc1CN1Cc3cc(c(Cl)cc3OS1(=O)=O)OCCOCCn1nnc3c(C)c(ccc31)C2CC(=O)O` (centres unmarked) [Example 75, [24-Chloro-4,32-dimethyl-28,28-dioxo-19,22,27-trioxa-28λ^6-thia-1,14,15,16-tetraazahexacyclo[21.5.3.1^3,70.1^9,130.0^12,160.0^26,30]tritriaconta-3(33),4,6,9(32),10,12,14,23,25,30-decaen-8-yl]acetic acid]: the EC50 came to 59.6 nM.

For `Cc1ccc2cc1CN1Cc3cc(ccc3OS1(=O)=O)OCCn1nnc3c(C)c(ccc31)C2CC(=O)O` (centres unmarked) [Example 77a, [4,29-Dimethyl-25,25-dioxo-19,24-dioxa-25λ^6-thia-1,14,15,16-tetraazahexacyclo[18.5.3.1^3,70.1^9,130.0^12,160.0^23,27]triaconta-3(30),4,6,9(29),10,12,14,20,22,27-decaen-8-yl]acetic acid], the concentration for a half-maximal effect (EC50) came to 1750 nM.

Consider `Cc1ccc2cc1CN1Cc3cc(ccc3OS1(=O)=O)OCCCCn1nnc3c(C)c(ccc31)[C@@H]2CC(=O)Nc1cncnc1` [Example 79a, 2-[(8R)-4,31-Dimethyl-27,27-dioxo-21,26-dioxa-27λ^6-thia-1,14,15,16-tetraazahexacyclo[20.5.3.1^3,70.1^9,130.0^12,160.0^25,29]dotriaconta-3(32),4,6,9(31),10,12,14,22,24,29-decaen-8-yl]-N-(pyrimidin-5-yl)acetamide], for which the concentration giving a half-maximal response (EC50) came to 1120 nM.

On to `Cc1ccc2cc1CN1Cc3cc(ccc3OS1(=O)=O)OCCCCn1nnc3c(C)c(ccc31)[C@H]2CC(=O)Nc1cncnc1` [Example 79b, 2-[(8S)-4,31-dimethyl-27,27-dioxo-21,26-dioxa-27λ^6-thia-1,14,15,16-tetraazahexacyclo[20.5.3.1^3,70.1^9,130.0^12,160.0^25,29]dotriaconta-3(32),4,6,9(31),10,12,14,22,24,29-decaen-8-yl]-N-(pyrimidin-5-yl)acetamide], for which the concentration giving a half-maximal response (EC50) amounted to 296 nM.

With `Cc1ccc2cc1CN1Cc3cc(ccc3OS1(=O)=O)OCCCCn1nnc3c(C)c(ccc31)[C@H]2CC(=O)Nc1cccnc1` [Example 80a, 2-[(8S)-4,31-Dimethyl-27,27-dioxo-21,26-dioxa-27λ^6-thia-1,14,15,16-tetraazahexacyclo[20.5.3.1^3,70.1^9,130.0^12,160.0^25,29]dotriaconta-3(32),4,6,9(31),10,12,14,22,24,29-decaen-8-yl]-N-(pyridin-3-yl)acetamide], the EC50 amounted to 596 nM.

Turning to `Cc1ccc2cc1CN1Cc3cc(ccc3OS1(=O)=O)OCCCCn1nnc3c(C)c(ccc31)[C@@H]2CC(=O)Nc1cccnc1` [Example 80b, 2-[(8R)-4,31-dimethyl-27,27-dioxo-21,26-dioxa-27λ^6-thia-1,14,15,16-tetraazahexacyclo[20.5.3.1^3,70.1^9,130.0^12,160.0^25,29]dotriaconta-3(32),4,6,9(31),10,12,14,22,24,29-decaen-8-yl]-N-(pyridin-3-yl)acetamide], the EC50 worked out at 2700 nM.

The same test, now with this note: read-out: CELLULAR U2OS EC50; U2OS Keap1-NRF2 nuclear translocation cells, 3 h incubation, luminescence, normalized between 1% DMSO and 10 μM andrographolide.
`Cc1ccc2cc1CN1Cc3cc(ccc3OS1(=O)=O)OCCn1nnc3c(C)c(ccc31)C2CC(=O)O` (centres unmarked) [Example 77b, [4,29-Dimethyl-25,25-dioxo-19,24-dioxa-25λ^6-thia-1,14,15,16-tetraazahexacyclo[18.5.3.1^3,70.1^9,130.0^12,160.0^23,27]triaconta-3(30),4,6,9(29),10,12,14,20,22,27-decaen-8-yl]acetic acid]: the half-maximal effective concentration (EC50) is more than 3160 nM.

By EC50 is commonly meant the concentration giving half of the maximal effect.

These data come from patent publication US12643912B2, “Macrocyclic compounds, a process for their preparation and pharmaceutical compositions containing them” (LES LABORATOIRES SERVIER, priority 2020, dated 2026).
